Experimental data from ChEMBL document CHEMBL1201862, “PubChem BioAssay data set” (2004).
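These data come from cells grown in 96-well plates and exposed to compound for 48 hours at five concentrations. GI50 = concentration required for 50% inhibition of growth.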 Active and inactive are the calls of the source. Rule as the data show it: active = GI50 up to about 1.1 µM and inactive = higher.

What was measured:
Test in all cases: DTP human tumour cell line panel, 48 h
786-0 = tested on: 786-0
A498 = tested on: A498
A549 = tested on: A549
ACHN = tested on: ACHN
CAKI-1 = tested on: CAKI-1
CCRF-CEM = tested on: CCRF-CEM
COLO 205 = tested on: COLO 205
DLD-1 = tested on: DLD-1
DMS-114 = tested on: DMS-114
DMS-273 = tested on: DMS-273
EKVX = tested on: EKVX
HCC 2998 = tested on: HCC 2998
HCT-116 = tested on: HCT-116
HCT-15 = tested on: HCT-15
HL-60 = tested on: HL-60
HOP-92 = tested on: HOP-92
HT-29 = tested on: HT-29
IGROV-1 = tested on: IGROV-1
KM-20L2 = tested on: KM-20L2
KM12 = tested on: KM12
LOX IMVI = tested on: LOX IMVI
LXFL 529 = tested on: LXFL 529
M19-MEL = tested on: M19-MEL
MOLT-4 = tested on: MOLT-4
Malme-3M = tested on: Malme-3M
NCI-H226 = tested on: NCI-H226
NCI-H23 = tested on: NCI-H23
NCI-H460 = tested on: NCI-H460
NCI-H522 = tested on: NCI-H522
OVCAR-3 = tested on: OVCAR-3
OVCAR-5 = tested on: OVCAR-5
OVCAR-8 = tested on: OVCAR-8
RXF 393 = tested on: RXF 393
SF-268 = tested on: SF-268
SF-295 = tested on: SF-295
SF-539 = tested on: SF-539
SK-MEL-28 = tested on: SK-MEL-28
SK-MEL-5 = tested on: SK-MEL-5
SK-OV-3 = tested on: SK-OV-3
SN12C = tested on: SN12C
SNB-19 = tested on: SNB-19
SNB-75 = tested on: SNB-75
SNB-78 = tested on: SNB-78
SR = tested on: SR
SW-620 = tested on: SW-620
TK-10 = tested on: TK-10
U-251 = tested on: U-251
UACC-257 = tested on: UACC-257
UACC-62 = tested on: UACC-62
UO-31 = tested on: UO-31
XF498 = tested on: XF498
HOP-18 = tested on: HOP-18
OVCAR-4 = tested on: OVCAR-4
RPMI-8226 = tested on: RPMI-8226
HOP-62 = tested on: HOP-62
K562 = tested on: K562
M14 = tested on: M14
SK-MEL-2 = tested on: SK-MEL-2

Measured: GI50

C[C@]12CCC(=O)C=C1CC[C@@H]1[C@@H]2[C@@H](O)C[C@@]2(C)[C@H]1CC[C@]2(O)C(=O)COC(=O)CCC1CCCC1 [HYDROCORTISONE CYPIONATE]
active: NCI-H226 0.0728 µM | OVCAR-5 0.0881 µM | SN12C 0.693 µM
inactive: 786-0 > 100 µM | A498 > 100 µM | A549 > 100 µM | ACHN > 100 µM | CAKI-1 87.5 µM | CCRF-CEM 95.9 µM | COLO 205 > 100 µM | DLD-1 > 100 µM | DMS-114 > 100 µM | DMS-273 61.1 µM | EKVX > 100 µM | HCC 2998 > 100 µM | HCT-116 > 100 µM | HL-60 72.9 µM | HOP-92 > 100 µM | HT-29 > 100 µM | IGROV-1 > 100 µM | KM-20L2 > 100 µM | KM12 > 100 µM | LOX IMVI > 100 µM | LXFL 529 > 100 µM | M19-MEL > 100 µM | MOLT-4 > 100 µM | Malme-3M > 100 µM | NCI-H23 > 100 µM | NCI-H460 > 100 µM | NCI-H522 > 100 µM | OVCAR-3 > 100 µM | OVCAR-8 > 100 µM | RXF 393 > 100 µM | SF-268 > 100 µM | SF-295 > 100 µM | SF-539 > 100 µM | SK-MEL-28 > 100 µM | SK-MEL-5 > 100 µM | SK-OV-3 5.83 µM | SNB-19 > 100 µM | SNB-75 > 100 µM | SNB-78 > 100 µM | SR > 100 µM | SW-620 > 100 µM | TK-10 > 100 µM | U-251 > 100 µM | UACC-257 > 100 µM | UACC-62 > 100 µM | UO-31 > 100 µM | XF498 > 100 µM
> 100 µM: HCT-15

O=c1c2cc(O)ccc2n2nnc3ccc(NCCNCCO)c1c32
77.8 µM: HCT-15
inactive: 786-0 4.86 µM | CAKI-1 5.68 µM | COLO 205 5.33 µM | DMS-114 2.28 µM | DMS-273 9.18 µM | EKVX 26.2 µM | HCT-116 4.62 µM | HOP-18 26.9 µM | HOP-92 3.49 µM | HT-29 8.77 µM | KM12 20.2 µM | LOX IMVI 3.23 µM | LXFL 529 3.2 µM | NCI-H226 2.6 µM | NCI-H23 11.7 µM | OVCAR-4 5.09 µM | OVCAR-8 3.53 µM | RPMI-8226 17.1 µM | SF-268 1.39 µM | SF-295 15.2 µM | SF-539 4.56 µM | SK-OV-3 5.08 µM | SNB-19 4.09 µM | U-251 1.27 µM | UO-31 26.9 µM | XF498 1.71 µM

O=C1OC2C=CC1C1(CCOC1=O)C2 (centres undefined)
inactive: 786-0 > 100 µM | A498 > 100 µM | A549 > 100 µM | ACHN > 100 µM | CAKI-1 > 100 µM | CCRF-CEM > 100 µM | COLO 205 > 100 µM | DLD-1 > 100 µM | DMS-114 > 100 µM | DMS-273 > 100 µM | EKVX > 100 µM | HCC 2998 > 100 µM | HCT-116 > 100 µM | HL-60 > 100 µM | HOP-18 > 100 µM | HOP-62 > 100 µM | HOP-92 > 100 µM | IGROV-1 48.8 µM | K562 > 100 µM | KM-20L2 > 100 µM | KM12 > 100 µM | LOX IMVI > 100 µM | LXFL 529 > 100 µM | M14 > 100 µM | M19-MEL > 100 µM | MOLT-4 > 100 µM | Malme-3M > 100 µM | NCI-H226 > 100 µM | NCI-H23 > 100 µM | NCI-H460 > 100 µM | NCI-H522 > 100 µM | OVCAR-3 > 100 µM | OVCAR-4 > 100 µM | OVCAR-5 > 100 µM | OVCAR-8 > 100 µM | RPMI-8226 > 100 µM | SF-268 > 100 µM | SF-539 > 100 µM | SK-MEL-28 > 100 µM | SK-MEL-2 > 100 µM | SK-MEL-5 > 100 µM | SN12C > 100 µM | SNB-19 > 100 µM | SNB-75 46.8 µM | SR > 100 µM | SW-620 > 100 µM | TK-10 > 100 µM | U-251 > 100 µM | UACC-257 > 100 µM | UACC-62 28.8 µM | UO-31 > 100 µM | XF498 > 100 µM
> 100 µM: HCT-15

O=C(N/N=C(/c1nc2ccc([N+](=O)[O-])cc2[nH]c1=O)C(O)c1ccc([N+](=O)[O-])cc1)c1ccncc1 (centres undefined)
inactive: 786-0 > 100 µM | A498 > 100 µM | A549 69 µM | ACHN 39.7 µM | CAKI-1 42 µM | CCRF-CEM 16.3 µM | COLO 205 > 100 µM | DLD-1 > 100 µM | DMS-114 13.4 µM | EKVX > 100 µM | HCC 2998 41.6 µM | HCT-116 > 100 µM | HL-60 26.4 µM | HOP-18 > 100 µM | HOP-62 69.7 µM | HOP-92 > 100 µM | HT-29 > 100 µM | IGROV-1 > 100 µM | K562 23.1 µM | KM12 59 µM | LOX IMVI > 100 µM | LXFL 529 53.1 µM | M14 45.9 µM | M19-MEL > 100 µM | MOLT-4 > 100 µM | Malme-3M > 100 µM | NCI-H226 > 100 µM | NCI-H23 > 100 µM | NCI-H460 > 100 µM | NCI-H522 6.64 µM | OVCAR-4 > 100 µM | OVCAR-5 > 100 µM | OVCAR-8 > 100 µM | RPMI-8226 > 100 µM | SF-268 > 100 µM | SF-295 > 100 µM | SF-539 75.5 µM | SK-MEL-28 > 100 µM | SK-MEL-2 > 100 µM | SK-MEL-5 36.3 µM | SK-OV-3 > 100 µM | SN12C > 100 µM | SNB-75 > 100 µM | SNB-78 > 100 µM | SR > 100 µM | SW-620 > 100 µM | TK-10 > 100 µM | U-251 > 100 µM | UACC-257 > 100 µM | UACC-62 > 100 µM | UO-31 > 100 µM | XF498 > 100 µM
23.1 µM: HCT-15
